From patent US12215234B2, “Process for the purification of methylene blue” (RK Pharma Solutions LLC, priority 2019, dated 2025)
Where “and” joins values, the source holds several entries; their conditions need not be identical. Identical values can stand only once.

Columns and labels:
Assay type in all cases: physicochemical
[1] = Stability study of methylene blue at about 40° C. (40/75), six months; conditions: stability at 40° C., Trial 1-3
Description: (§1) Methylene blue product obtained by this process is then loaded for stability at about 20-25° C. and at about 40° C. Purity and metal content of Methylene blue is tested for up to six months.

[2] = Stability study of methylene blue at about 20-25° C. (25/60), six months; parameters: Highest Unknown / Total impurities / Azure B / Azure C: unit not given here; conditions: stability at 25° C., Trial 1-3
Description: as §1

[3] = pH of formulation containing methylene blue made by the prior-art process; conditions: methylene blue by process of Fundamental Processes of Dye Chemistry, isolated in the range of 3.0-4.5; pH increases
Source text: Desired pH for the methylene blue formulation as per USP is in between 3.0-4.5.
Another area of concern is pH of formulated methylene blue. USP mentions that pH of methylene blue formulation should be in between about 3.0 to about 4.5. In formulation, pH of Methylene blue solution tends to increase drastically when the pH of the active pharmaceutical ingredient (API) is kept in between about 3.0 to about 4.5 as per prior art process. To overcome such a problem, the reaction mass pH is preferably kept less than about 2 and more preferably pH of less than about 1. Suitable acids for the adjustment of pH to below about 1 includes, but is not limited to, hydrochloric acid.

Azure B ([1]; impurity, 6M 40/75): 2.41 and 2.26 | Azure C ([1]; impurity, 6M 40/75): 0.01 | Metal Content Mn ([1]; 6M 40/75): 0.49 ppm and 0.51 ppm | Total impurities ([1]; 6M 40/75): 2.5 and 2.46 and 2.52 | Total metal content ([1]; 6M 40/75, sum of Al, Cr, Cu, Mn, Zn): 74.97 ppm and 62.91 ppm and 62.48 ppm | Purity ([1]; profile 6M 40/75): 97.5 and 97.54 and 97.48 | Azure B ([2]; impurity, 6M 25/60): 2.37 and 2.2 and 2.17 | Azure C ([2]; impurity, 6M 25/60): 0.01 | Highest Unknown ([2]; impurity, 6M 25/60): 0.04 and 0.06 and 0.08 | Metal Content Mn ([2]; 6M 25/60): 0.68 ppm and 0.61 ppm and 0.48 ppm | Total impurities ([2]; 6M 25/60): 2.46 and 2.4 and 2.44 | Total metal content ([2]; 6M 25/60, sum of Al, Cr, Cu, Mn, Zn): 76.51 ppm and 75.6 ppm and 57.41 ppm | Purity ([2]; profile 6M 25/60): 97.54 and 97.6 and 97.56 | pH of the formulation containing methylene blue [3]: above 4.5
Structure (SMILES): CN(C)c1ccc2nc3ccc(N(C)C)cc3[s+]c2c1 [Methylene blue, 3,7-bis(dimethylamino)phenothiazin-5-ylium chloride]
